This is an account of results in patent US11517575B2, “Use of minaprine to reduce tumor growth” (Institut Gustave-Roussy, priority 2019, dated 2022).

One experiment has as its system CT26 tumor cells. Put plainly: Tumor growth in immunocompetent mice after intratumoral or intraperitoneal injection. As to conditions: Balb/c mice. The experiment is classed as in vivo, mouse. On the procedure: FIG. 7. Minaprine reduces tumor growth in immunocompetent mice after intratumoral or intraperitoneal injections. (A-C) 3 10^6 CT26 cells were implanted in immunocompetent BALB/c mice. Palpable tumors were injected with 10 μM Minaprine (or control) after 6 days. The tumor growth volume was then determined three times a week for the following 38 days (A and B). The percentage of mice survival was also determined (C). (D-I) 5 10^5 CT26 cells were implanted in immunocompetent BALB/c mice. After 12 days, tumor bearing mice were intraperitoneally injected with control (D and I), 0.3 mg/kg (E and I), 1 mg/kg (F and I), 3 mg/kg (G and I) or 10 mg/kg (H and I) of Minaprine. Tumor growth volumes (A-J) and fold change in the tumor volumes after intraperitoneal injection (D-I) were analyzed. Tumor growth volumes were the determined three times a week for the following 38 days.
For intratumoral injection, 3 10^6 Balb/c-derived CT26 tumor cells were subcutaneously implanted in 8 week-old Balb/c mice (Janvier Laboratories). After 6 days, 10 μM of Minaprine or control phosphate buffer saline (PBS) was injected into tumors (20 μl) and tumor volume was evaluated 3 times a week. For intraperitoneal injection, 5 10^5 Balb/c-derived CT26 tumor cells were subcutaneously implanted in 8 week-old Balb/c mice (Janvier Laboratories). After 12 days, tumor-bearing mice were intraperitonealy injected with different concentrations of Minaprine (0.3, 1, 3 and 10 mg/kg) or PBS. Tumor volume was also evaluated 3 times a week. The experiments were randomized, performed in compliance with the EU Directive 63/2010 and approved by Ethical Committee at Gustave Roussy Cancer Campus (CEEA IRCIV/IGR n^o26).
No statistical methods or criteria were used to estimate sample size or to include/exclude samples. The investigators were not blinded to group allocation during experiments and outcome assessment. Results are expressed as mean value SEM. To determine statistical significance, Two-way ANOVA (FIG. 7A) and Log rank (Mantel-Cox) (FIG. 7I) tests were used for calculation of P values. Prism 6 Software was used for the generation of survival graphs and statistical significance. Statistical significance was given as **p value<0.01 or *p value<0.05.
We first subcutaneously implanted 3 10^6 Balb/c-derived CT26 colon cancer cells in immunocompetent Balb/c mice. After 6 days, tumor-bearing mouse were randomized and 10 μM of Minaprine (3 mg/kg) was injected into tumors. Tumor growth was analyzed during 38 days.
We next determined whether intraperitoneal injections of Minaprine could also impact tumor growth. Thus, 5 10^5 Balb/c-derived CT26 cells were implanted into immunocompetent Balb/c mice. After 12 days, tumor-bearing mice were randomized, intraperitoneally injected with control (FIGS. 7D and 7I) or with Minaprine at different concentrations (FIGS. 7E-7I).

The subject of a further experiment is HCT116 cells. Put plainly: Screening of chemical libraries for IR-mediated cellular cannibalism (imaging flow cytometry, confocal validation). The experiment is classed as cell-based, human. Conditions: for enhancement of IR-mediated cellular cannibalism: 8 Gy irradiated HCT116 cells, 10 μM compound, 24 h culture, dihydrochloride. On the procedure: FIG. 4 Identification of cannibalism modulators triggered by ionizing radiation. Compounds from the Prestwick (A) and CEA (F) libraries were tested for their capacities to induce cellular cannibalism after ionizing radiation. Cannibal cells were detected after homotypic cultures of 8 gray γ-irradiation HCT116 cells in the presence or absence of 10 μM of the Prestwick (A) and CEA […] library compounds. Each dot represents one compound. Representative images are shown in (B, G). (C, H) HCT116 cells were treated with the indicated drugs. After 24 h of treatment, cell death was monitored by staining with 3,3 dihexyloxacarbocyanine iodide (DiOC6(3)) and PI^+, and the percentage of dying (DiOC6(3)^low PI^−, open bars) and dead (DiOC6(3)^low PI^+, closed bars) cells was determined by cytofluorometry. Validation of the cannibalism inducers by fluorescent microscopy. Representative images (D, I) and quantification (E, J) are shown. Results are means s.e.m. of triplicate determinations.
Untreated HCT116 cells were labeled with CMFDA (green fluorescence, CMFDA^+) or CMTMR, (red fluorescence, CMTMR) and treated HCT116 cells with CMFDA (green fluorescence, CMFDA^+). The following cell mixtures were performed: untreated CMTMR^+ HCT116 cells were mixed with untreated CMFDA^+ HCT116 cells, or untreated CMTMR^+ HCT116 cells were mixed with treated CMFDA^+ HCT116 cells. Then, cells were co-cultured during 24 hours in the presence or absence of the pharmacological inhibitor of ROCK, Y27632 (30 μM), the pan-caspase inhibitor, Z-VAD-fmk (ZVAD, 100 μM), the inhibitor of caspase-1, Ac-YVAD-cmk (YVAD, 100 μM), the necroptosis inhibitor, Necrostatin-1 (NEC1, 30 μM), the inhibitor of the vacuolar type H(+)-ATPase (V-ATPase) inhibiting autophagy, Bafilomycin A1 (BafA1, 50 nM), the inhibitor of Cdks with an anti-mitotic activity, Roscovitine (Rosco, 10 μM). After 24 hours of co-culture, both detached and adherent cells were collected and stained with Hoechst […] (10 μg/mL) during 1 hour at 37° C. in warmed complete medium. To detect phosphatidylserine (PS) exposure and plasma membrane permeability, labeled HCT116 cells were successively incubated with Biotin-AnnexinV (BD Pharmingen) as recommended by manufacturer, […] BV786-Streptavidin (BD Biosciences) and 3 μM DRAQ7 (BioStatus) during 15 minutes at 25° C. After washing with PBS solution, samples were immediately analyzed using an imaging flow cytometer FlowSight® (Amnis®, part of EMD Millipore). Data were acquired at a 20× magnification, using INSPIRE software. The 405 nm, 488 nm, and 561 nm lasers were used for excitation. Brightfield, Annexin V-BV786, DRAQ7, CMFDA, CMTMR and Hoechst […] stainings were detected using respectively channels for 420-480 nm, 745-800 nm, 642-745 nm, 480-560 nm, 595-642 nm and 430-505 nm. At least 1000 events of cells per sample were analyzed. Additional single-labeled controls were prepared to normalize fluorescent signal across different channels. Acquired data were analyzed using the IDEAS analysis software (v6.1; Merck-Millipore). Gating strategy was the following. Cells were gated for focused cells using the Gradient RMS feature. Cells were gated for single cells using the aspect ratio and area features. For the cannibalism detection, cells were gated in the double positive CMFDA^+ and CMTMR^+ staining.
To detect PS exposure, plasma membrane permeability and cell cycle progression, cells were after co-culture sequentially labeled with specific fluorescent probes (such as FITC-conjugated AnnexinV, propidium iodide, and Hoechst 33342) and analyzed by flow cytometry. Both detached and adherent cells were collected and stained with Hoechst […] (10 μg/ml) during 1 hour at 37° C. in warmed complete medium. After washing with PBS, HCT116 cells were suspended in 1× binding buffer supplemented with fluorescein isothiocyanate (FITC)-conjugated Annexin V (BD Biosciences) and propidium iodide (PI, 1 μg/mL) (Sigma), as per manufacturer's instructions. […]
(In general: A flow cytometer gives signals particle by particle.)

For `Cc1cc(-c2ccccc2)nnc1NCCN1CCOCC1.Cl.Cl` [Minaprine dihydrochloride], the tumor growth entry in the experiment on CT26 tumor cells (intraperitoneal injection 1 mg/kg 12 days after implant of 5 10^5 CT26 cells) was “significantly decreased the growth of treated tumors”; in the experiment on CT26 tumor cells (intraperitoneal injection 3 mg/kg 12 days after implant of 5 10^5 CT26 cells) it was “significantly decreased the growth of treated tumors”; in the experiment with CT26 tumor cells (intraperitoneal injection 10 mg/kg 12 days after implant of 5 10^5 CT26 cells), “significantly decreased the growth of treated tumors”; in the experiment with CT26 tumor cells (intratumoral injection 3 mg/kg (10 μM) 6 days after implant of 3 10^6 CT26 cells, followed 38 days), “significantly decreases the growth of tumors”. Further, in the experiment with CT26 tumor cells (intratumoral injection 3 mg/kg, CT26 tumors, versus untreated control), the “survival of treated mice” value is listed as “increase survival”. The figures for the “enhancement of IR-mediated cellular cannibalism” value with HCT116 cells and with HCT116 cells (listed as Minaprine) were “efficient cellular cannibalism enhancer” and “significantly increased in presence of ionizing radiation”, respectively. In the experiment on HCT116 cells (cancer cells treated with compound, without IR), the “induction of cellular cannibalism (Type IV cell death)” value was “favors the induction of Type IV cell death modality”.
